According to patent US10246461B2, “Dosage form compositions comprising an inhibitor of bruton's tyrosine kinase” (Genentech, Inc., priority 2016, dated 2019):
Converted amounts (≈) assume the structure as drawn. Where two headings read alike, the source gives them in different places.

Columns and labels:
[1] = Human PK, second comparative study: single dose food and PPI assessment of 100 mg powder-in-capsule (Panels J-M); type: in vivo; conditions: 100 mg PIC single dose
Excerpt: The protocol is detailed Table 24 below wherein each panel contained 10 human subjects.

[2] = Dissolution of compound (I) mesylate salt vs free base in pH 4.5 aqueous media; type: physicochemical; conditions: 100 mg in 2 mL pH 4.5 aqueous media, 37° C.
[3] = Two-stage non-sink dissolution assay (kinetic solubility) of ASD formulations and unformulated API: simulated gastric media then FaSSIF; type: physicochemical; conditions: pH 1 gastric media, dosed concentration of about 2000 ug/mL
Experimental: The assay was performed in a modified USP II apparatus (paddles). The experiment measured the total drug dissolved in the presence of excess solid API (non-sink conditions), which included a combination of ‘free’ and colloidal or polymer-bound drug in solution. In some evaluations—to simulate the relatively high pH gastric environment in patients taking proton pump inhibitors—different simulated gastric media were used to begin the two-stage experiment: either pH 1 (HCl buffer) or pH 4 or 5 (acetate buffers) at a nominal compound (I) concentration of 2.0 mg/mL. In some other experiments, acetate buffer was replaced with a dilute HCl solution at similar pH, to better mimic the expected in vivo environment. After 30 minutes, the test material was transferred to fasted-state simulated intestinal fluid (FaSSIF) media consisting of physiologically relevant bile salts (SIF Powder, Biorelevant Inc.) in 100 mM phosphate buffer, and the compound (I) concentration was diluted to 1.0 mg/mL. pH of the phosphate buffer was adjusted as needed to obtain a simulated intestinal pH of 6.8±0.1 in the second stage of the dissolution experiment. The test material was sampled periodically throughout the test and samples were centrifuged at 13,000 r/min. The supernatant was diluted 1:1 with sample diluent and the compound (I) concentration was measured by HPLC. […]

[4] = Solubility of compound (I) free base in buffers of varying pH, FeSSIF and FaSSIF; type: physicochemical
[5] = Panel K: high fat breakfast, no PPI
[6] = Panel L: fasted + rabeprazole 20 mg BID
[7] = Panel M: high fat breakfast + rabeprazole 20 mg BID

Compound: C[C@H]1CN(C2COC2)CCN1c1ccc(Nc2cc(-c3ccnc(N4CCn5c(cc6c5CC(C)(C)C6)C4=O)c3CO)cn(C)c2=O)nc1 [Compound (I) free base, (S)-2-(3′-(hydroxymethyl)-1-methyl-5-((5-(2-methyl-4-(oxetan-3-yl)piperazin-1-yl)pyridin-2-yl)amino)-6-oxo-1,6-dihydro-[3,4′-bipyridin]-2′-yl)-7,7-dimethyl-2,3,4,6,7,8-hexahydro-1H-cyclopenta[4,5]pyrrolo[1,2-a]pyrazin-1-one]
- plasma AUCinf, Mean ([1]; Panel J: fasted, no PPI): 1.073 µM·h
- plasma HL-Lambda-z, Mean ([1]; Panel J: fasted, no PPI): 16 h
- plasma HL-Lambda-z, Median ([1]; Panel J: fasted, no PPI): 13 h
- plasma AUCinf, Mean [1, 5]: 1.701 µM·h
- plasma HL-Lambda-z, Mean [1, 5]: 9.82 h
- plasma HL-Lambda-z, Median [1, 5]: 9.7 h
- plasma HL-Lambda-z, Mean [1, 6]: 12.8 h
- plasma HL-Lambda-z, Median [1, 6]: 11 h
- plasma HL-Lambda-z, Mean [1, 7]: 13.4 h
- plasma HL-Lambda-z, Median [1, 7]: 12 h
- Cmax ([1]; Panel M: high fat breakfast + rabeprazole 20 mg BID, read-out: plasma Cmax, Mean): 41 nM
- AUC(0-t) ([1]; plasma, oral, Panel L: fasted + rabeprazole 20 mg BID, read-out: plasma AUC0-24, Mean): 0.157 µM·h
- AUC(0-t) ([1]; plasma, oral, Panel L: fasted + rabeprazole 20 mg BID, read-out: plasma AUC0-24, Median): 0.16 µM·h
- AUC(0-inf) ([1]; plasma, oral, Panel L: fasted + rabeprazole 20 mg BID, read-out: plasma AUCinf, Mean): 0.274 µM·h
- AUC(0-inf) ([1]; plasma, oral, Panel L: fasted + rabeprazole 20 mg BID, read-out: plasma AUCinf, Median): 0.27 µM·h
- AUC(0-t) ([1]; plasma, oral, Panel L: fasted + rabeprazole 20 mg BID, read-out: plasma AUClast, Mean): 0.261 µM·h
- AUC(0-t) ([1]; plasma, oral, Panel L: fasted + rabeprazole 20 mg BID, read-out: plasma AUClast, Median): 0.27 µM·h
- Cmax ([1]; plasma, oral, Panel L: fasted + rabeprazole 20 mg BID, read-out: plasma Cmax, Mean): 11.6 nM
- Cmax ([1]; plasma, oral, Panel L: fasted + rabeprazole 20 mg BID, read-out: plasma Cmax, Median): 12 nM
- Tmax ([1]; plasma, oral, Panel L: fasted + rabeprazole 20 mg BID, read-out: plasma Tmax, Mean): 5.7 h
- Tmax ([1]; plasma, oral, Panel L: fasted + rabeprazole 20 mg BID, read-out: plasma Tmax, Median): 4 h
- AUC(0-t) ([1]; plasma, oral, Panel M: high fat breakfast + rabeprazole 20 mg BID, read-out: plasma AUC0-24, Mean): 0.471 µM·h
- AUC(0-t) ([1]; plasma, oral, Panel M: high fat breakfast + rabeprazole 20 mg BID, read-out: plasma AUC0-24, Median): 0.52 µM·h
- AUC(0-inf) ([1]; plasma, oral, Panel M: high fat breakfast + rabeprazole 20 mg BID, read-out: plasma AUCinf, Mean): 0.657 µM·h
- AUC(0-inf) ([1]; plasma, oral, Panel M: high fat breakfast + rabeprazole 20 mg BID, read-out: plasma AUCinf, Median): 0.67 µM·h
- AUC(0-t) ([1]; plasma, oral, Panel M: high fat breakfast + rabeprazole 20 mg BID, read-out: plasma AUClast, Mean): 0.642 µM·h
- AUC(0-t) ([1]; plasma, oral, Panel M: high fat breakfast + rabeprazole 20 mg BID, read-out: plasma AUClast, Median): 0.66 µM·h
- Cmax ([1]; plasma, oral, Panel M: high fat breakfast + rabeprazole 20 mg BID, read-out: plasma Cmax, Mean): 40.6 nM
- Cmax ([1]; plasma, oral, Panel M: high fat breakfast + rabeprazole 20 mg BID, read-out: plasma Cmax, Median): 40 nM
- Tmax ([1]; plasma, oral, Panel M: high fat breakfast + rabeprazole 20 mg BID, read-out: plasma Tmax, Mean): 6.9 h
- Tmax ([1]; plasma, oral, Panel M: high fat breakfast + rabeprazole 20 mg BID, read-out: plasma Tmax, Median): 7 h
- AUC(0-t) ([1]; plasma, oral, 100 mg, Panel J: fasted, no PPI, read-out: plasma AUC0-24, Mean): 0.967 µM·h
- AUC(0-t) ([1]; plasma, oral, 100 mg, Panel J: fasted, no PPI, read-out: plasma AUC0-24, Median): 0.98 µM·h
- AUC(0-inf) ([1]; plasma, oral, 100 mg, Panel J: fasted, no PPI, read-out: plasma AUCinf, Mean): 1.07 µM·h
- AUC(0-inf) ([1]; plasma, oral, 100 mg, Panel J: fasted, no PPI, read-out: plasma AUCinf, Median): 1.1 µM·h
- AUC(0-t) ([1]; plasma, oral, 100 mg, Panel J: fasted, no PPI, read-out: plasma AUClast, Mean): 1.06 µM·h
- AUC(0-t) ([1]; plasma, oral, 100 mg, Panel J: fasted, no PPI, read-out: plasma AUClast, Median): 1 µM·h
- Cmax ([1]; plasma, oral, 100 mg, Panel J: fasted, no PPI, read-out: plasma Cmax, Mean): 218 nM
- Cmax ([1]; plasma, oral, 100 mg, Panel J: fasted, no PPI, read-out: plasma Cmax, Median): 200 nM
- Tmax ([1]; plasma, oral, 100 mg, Panel J: fasted, no PPI, read-out: plasma Tmax, Mean): 1.5 h
- Tmax ([1]; plasma, oral, 100 mg, Panel J: fasted, no PPI, read-out: plasma Tmax, Median): 1.5 h
- AUC(0-t) ([1]; plasma, oral, 100 mg, Panel K: high fat breakfast, no PPI, read-out: plasma AUC0-24, Mean): 1.56 µM·h
- AUC(0-t) ([1]; plasma, oral, 100 mg, Panel K: high fat breakfast, no PPI, read-out: plasma AUC0-24, Median): 1.5 µM·h
- AUC(0-inf) ([1]; plasma, oral, 100 mg, Panel K: high fat breakfast, no PPI, read-out: plasma AUCinf, Mean): 1.7 µM·h
- AUC(0-inf) ([1]; plasma, oral, 100 mg, Panel K: high fat breakfast, no PPI, read-out: plasma AUCinf, Median): 1.6 µM·h
- AUC(0-t) ([1]; plasma, oral, 100 mg, Panel K: high fat breakfast, no PPI, read-out: plasma AUClast, Mean): 1.69 µM·h
- AUC(0-t) ([1]; plasma, oral, 100 mg, Panel K: high fat breakfast, no PPI, read-out: plasma AUClast, Median): 1.6 µM·h
- Cmax ([1]; plasma, oral, 100 mg, Panel K: high fat breakfast, no PPI, read-out: plasma Cmax, Mean): 235 nM
- Cmax ([1]; plasma, oral, 100 mg, Panel K: high fat breakfast, no PPI, read-out: plasma Cmax, Median): 250 nM
- Tmax ([1]; plasma, oral, 100 mg, Panel K: high fat breakfast, no PPI, read-out: plasma Tmax, Mean): 4 h
- Tmax ([1]; plasma, oral, 100 mg, Panel K: high fat breakfast, no PPI, read-out: plasma Tmax, Median): 4 h
- % dissolved ([2]; 15 min): 0%
- % dissolved ([2]; 30 min): 0.5%
- % dissolved ([2]; 45 min): 2.3%
- % dissolved ([2]; 60 min): 4.1%
- kinetic dissolution in gastric media [3]: fully dissolved
- solubility ([4]; FaSSIF (pH 6.8), read-out: Solubility): 13 µg/mL (≈ 19.6 µM)
- solubility ([4]; FeSSIF (pH 5), read-out: Solubility): 18 µg/mL (≈ 27.1 µM)
- solubility ([4]; aqueous buffer, pH 2.54, aqueous buffer, read-out: Solubility): 35900 µg/mL (≈ 54000 µM)
- solubility ([4]; aqueous buffer, pH 2.6, aqueous buffer, pH 2.60, read-out: Solubility): 6480 µg/mL (≈ 9750 µM)
- solubility ([4]; aqueous buffer, pH 3.8, aqueous buffer, pH 3.80, read-out: Solubility): 36 µg/mL (≈ 54.2 µM)
- solubility ([4]; aqueous buffer, pH 5.04, aqueous buffer, read-out: Solubility): 1 µg/mL (≈ 1.5 µM)
- solubility ([4]; aqueous buffer, pH 6.94, aqueous buffer, read-out: Solubility): 1 µg/mL (≈ 1.5 µM)
- solubility ([4]; aqueous buffer, pH 7.76, aqueous buffer, read-out: Solubility): 1 µg/mL (≈ 1.5 µM)

Compound: CC1CN(C2COC2)CCN1c1ccc(Nc2cc(-c3ccnc(N4CCn5c(cc6c5CC(C)(C)C6)C4=O)c3CO)cn(C)c2=O)nc1 [Compound (A), (R)-2-(3′-(hydroxymethyl)-1-methyl-5-((5-(2-methyl-4-(oxetan-3-yl)piperazin-1-yl)pyridin-2-yl)amino)-6-oxo-1,6-dihydro-[3,4′-bipyridin]-2′-yl)-7,7-dimethyl-2,3,4,6,7,8-hexahydro-1H-cyclopenta[4,5]pyrrolo[1,2-a]pyrazin-1-one]
- solubility ([4]; aqueous buffer, pH 2.6, aqueous buffer, read-out: aqueous solubility): ~6500 µg/mL (≈ 9780 µM)
- solubility ([4]; aqueous buffer, pH 5.0, read-out: solubility): ~1 µg/mL (≈ 1.5 µM)
